Laboratory results reported in patent US20100317607A1, “USE OF COMPOUNDS FOR PREPARING ANTI-TUBERCULOSIS AGENTS” (INFECTIOUS DISEASE RESEARCH INSTITUTE, priority 2007, published 2010).
≈ marks a conversion by molar mass, not a printed value. Where a name gives a salt, the structure may show the parent alone.

test system: H37Rv strain of M. tuberculosis; assay: Alamar Blue Susceptibility Test (MABA); type: cell-based; details: Mycobacterium tuberculosis, H37RV, read-out: MABA (TB growth inhibition, colourimetric assay)

Compound | MIC [µM]
Clc1ccc(CNc2nc(N3CCCCC3)nc3ccccc23)cn1 [Compound 194, N-((6-Chloropyridin-3-yl)methyl)-2-(piperidin-1-yl)quinazolin-4-amine hydrochloride] | 10 to 50

same assay, conditions: Mycobacterium tuberculosis; H37Rv strain of M. tuberculosis; Alamar Blue; read-out: MABA (TB growth inhibition, colourimetric assay)

Compound | MIC [µM]
COc1ccc(CCNc2nc(N3CCCCC3)nc3ccccc23)cc1 [Compound 84, N-(4-Methoxyphenethyl)-2-(piperidin-1-yl)quinazolin-4-amine hydrochloride] | < 10
FC(F)(F)c1ccc(N2CCN(c3nc(NCc4ccccc4)c4ccccc4n3)CC2)cc1 [Compound 135, N-Benzyl-2-(4-(4-(trifluoromethyl)phenyl)piperazin-1-yl)quinazolin-4-amine hydrochloride] | < 10
C[C@@H](Nc1nc(N2CCCCC2)nc2ccccc12)c1ccccc1 [Compound 39, (R)—N-(1-Phenylethyl)-2-(piperidin-1-yl)quinazolin-4-amine] | < 10
CC(C)(Nc1nc(N2CCCCC2)nc2ccccc12)c1ccc(F)cc1 [Compound 120, N-(2-(4-Fluorophenyl)propan-2-yl)-2-(piperidin-1-yl)quinazolin-4-amine] | < 10
Clc1ccc(CNc2nc(NCc3ccccc3)c3ccccc3n2)cc1 [Compound 127, N^4-Benzyl-N^2-(4-chlorobenzyl)quinazoline-2,4-diamine hydrochloride] | < 10
c1ccc(CNc2nc(N3CCCC3)nc3ccccc23)cc1 [Compound 22, N-Benzyl-2-(pyrrolidin-1-yl)quinazolin-4-amine] | < 10
CCCNc1nc(NCc2ccccc2)c2ccccc2n1 [Compound 67, N^4-Benzyl-N^2-propylquinazoline-2,4-diamine] | 10 to 50 (≈ 2.92 to 14.6 µg/mL)
Clc1ccc(CNc2nc(N3CCOCC3)nc3ccccc23)cc1 [Compound 74, N-(4-Chlorobenzyl)-2-morpholinoquinazolin-4-amine] | 10 to 50 (≈ 3.55 to 17.7 µg/mL)
Fc1ccc(CNc2nc(N3CCCC3)nc3cccc(Cl)c23)cc1 [Compound 182, 5-Chloro-N-(4-fluorobenzyl)-2-(pyrrolidin-1-yl)quinazolin-4-amine] | 10 to 50 (≈ 3.57 to 17.8 µg/mL)
Fc1ccc(C2(Nc3nc(N4CCCCC4)nc4ccccc34)CC2)cc1 [Compound 152, N-(1-(4-Fluorophenyl)cyclopropyl)-2-(piperidin-1-yl)quinazolin-4-amine] | 10 to 50 (≈ 3.62 to 18.1 µg/mL)
CC(C)(Nc1nc(N2CCCC2)nc2ccccc12)c1ccccc1 [Compound 91, N-(2-Phenylpropan-2-yl)-2-(pyrrolidin-1-yl)quinazolin-4-amine] | 10 to 50 (≈ 3.32 to 16.6 µg/mL)
COc1cc2c(cc1OC)CN(c1nc(N3CCCC3)nc3ccccc13)CC2 [Compound 188, 4-(6,7-Dimethoxy-3,4-dihydroisoquinolin-2(1H)-yl)-2-(pyrrolidin-1-yl)quinazoline] | 10 to 50 (≈ 3.9 to 19.5 µg/mL)
Fc1ccc(CNc2nc(NCc3ccc(F)cc3)c3sccc3n2)cc1 [Compound 166, N^2,N^4-bis(4-Fluorobenzyl)thieno[3,2-d]pyrimidine-2,4-diamine] | 10 to 50 (≈ 3.82 to 19.1 µg/mL)
O=C1CCN(c2nc(NCc3ccccc3)c3ccccc3n2)CC1 [Compound 139, 1-(4-(Benzylamino)quinazolin-2-yl)piperidin-4-one] | < 10
Fc1ccc(CNc2nc(N3CCOCC3)nc3ccccc23)cc1 [Compound 169, N-(4-Fluorobenzyl)-2-morpholinoquinazolin-4-amine] | 10 to 50 (≈ 3.38 to 16.9 µg/mL)
c1ccc2c(CNc3nc(N4CCCCC4)nc4ccccc34)ccnc2c1 [Compound 195, 2-(Piperidin-1-yl)-N-(quinolin-4-ylmethyl)quinazolin-4-amine] | 10 to 50 (≈ 3.69 to 18.5 µg/mL)
O=C(N1CCCC1)N1CCN(c2nc(NCc3ccc(F)cc3)c3ccccc3n2)CC1 [Compound 205, (4-(4-(4-Fluorobenzylamino)quinazolin-2-yl)piperazin-1-yl)(pyrrolidin-1-yl)methanone hydrochloride] | 50 to 128
COC(=O)[C@@H]1CCCN1c1nc(NCc2ccc(F)cc2)c2ccccc2n1 [Compound 200, (S)-Methyl 1-(4-(4-fluorobenzylamino)quinazolin-2-yl)pyrrolidine-2-carboxylate] | 50 to 128 (≈ 19 to 48.7 µg/mL)
COC[C@@H]1CCCN1c1nc(NCc2ccccc2)c2ccccc2n1 [Compound 178, (S)—N-Benzyl-2-(2-(methoxymethyl)pyrrolidin-1-yl)quinazolin-4-amine] | 50 to 128 (≈ 17.4 to 44.6 µg/mL)
Clc1ccc(CNc2nc(N3CCCC3)nc3ccccc23)cc1 [Compound 75, N-(4-Chlorobenzyl)-2-(pyrrolidin-1-yl)quinazolin-4-amine] | 10 to 50 (≈ 3.39 to 16.9 µg/mL)
Fc1ccc(CNc2nc(N3CCCCC3)nc3cccc(Cl)c23)cc1 [Compound 183, 5-Chloro-N-(4-fluorobenzyl)-2-(piperidin-1-yl)quinazolin-4-amine] | 10 to 50 (≈ 3.71 to 18.5 µg/mL)
c1ccc(C(Nc2nc(N3CCCCC3)nc3ccccc23)c2ccccc2)cc1 [Compound 50, N-Benzhydryl-2-(piperidin-1-yl)quinazolin-4-amine] | 10 to 50 (≈ 3.95 to 19.7 µg/mL)

Compound | MIC [µM]
Clc1ccc(C2(Nc3nc(N4CCCC4)nc4ccccc34)CC2)cc1 [Compound 142, N-(1-(4-Chlorophenyl)cyclopropyl)-2-(pyrrolidin-1-yl)quinazolin-4-amine hydrochloride] | 10 to 50
Fc1ccc(CNc2nc(NCc3cc4ccccc4s3)nc3ccccc23)cc1 [Compound 171, N^2-(Benzo[b]thiophen-2-ylmethyl)-N^4-(4-fluorobenzyl)quinazoline-2,4-diamine] | 10 to 50 (≈ 4.15 to 20.7 µg/mL)
c1ccc(CNc2nc(N3CCCCCC3)nc3ccccc23)cc1 [Compound 197, 2-(Azepan-1-yl)-N-benzylquinazolin-4-amine] | 10 to 50 (≈ 3.32 to 16.6 µg/mL)
Fc1ccc(CNc2nc(N3CCc4ccc(Br)cc4C3)nc3ccccc23)cc1 [Compound 193, 2-(7-Bromo-3,4-dihydroisoquinolin-2(1H)-yl)-N-(4-fluorobenzyl)quinazolin-4-amine] | 10 to 50 (≈ 4.63 to 23.2 µg/mL)
Fc1ccc(CNc2nc(NCc3ccc(C(F)(F)F)o3)c3ccccc3n2)cc1 [Compound 159, N^2-(4-Fluorobenzyl)-N4-((5-(trifluoromethyl)furan-2-yl)methyl)quinazoline-2,4-diamine hydrochloride] | < 10
CCS(=O)(=O)N1CCN(c2nc(NCc3ccccc3)c3ccccc3n2)CC1 [Compound 26, N-Benzyl-2-(4-(ethylsulfonyl)piperazin-1-yl)quinazolin-4-amine] | 50 to 128 (≈ 20.6 to 52.7 µg/mL)
CC(C)C(=O)N1CCN(c2nc(NCc3ccccc3)c3ccccc3n2)CC1 [Compound 56, 1-(4-(4-(Benzylamino)quinazolin-2-yl)piperazin-1-yl)-2-methylpropan-1-one] | 50 to 128 (≈ 19.5 to 49.9 µg/mL)
OC[C@H](Cc1ccccc1)Nc1nc(N2CCCCC2)nc2ccccc12 [Compound 143, (S)-3-Phenyl-2-(2-(piperidin-1-yl)quinazolin-4-ylamino)propan-1-ol hydrochloride] | 10 to 50
CC(C)(C)OC(=O)N1CCCN(c2nc(NCc3ccccc3)c3ccccc3n2)CC1 [Compound 55, tert-Butyl 4-(4-(benzylamino)quinazolin-2-yl)-1,4-diazepane-1-carboxylate] | 10 to 50 (≈ 4.34 to 21.7 µg/mL)
CC(C)(C)OC(=O)N1CCc2c(nc(N3CCCCC3)nc2NCc2ccc(F)cc2)C1 [Compound 184, tert-Butyl 4-(4-fluorobenzylamino)-2-(piperidin-1-yl)-5,6-dihydropyrido[3,4-d]pyrimidine-7(8H)-carboxylate] | 50 to 128 (≈ 22.1 to 56.5 µg/mL)
c1ccc(C2(Nc3nc(N4CCCC4)nc4ccccc34)CCCCC2)cc1 [Compound 125, N-(1-Phenylcyclohexyl)-2-(pyrrolidin-1-yl)quinazolin-4-amine] | 50 to 128 (≈ 18.6 to 47.7 µg/mL)
c1ccc(C2(Nc3nc(N4CCCCC4)nc4ccccc34)CC2)cc1 [Compound 122, N-(1-Phenylcyclopropyl)-2-(piperidin-1-yl)quinazolin-4-amine] | 10 to 50 (≈ 3.44 to 17.2 µg/mL)
OC[C@@H]1CCCN1c1nc(NCc2ccc(F)cc2)c2ccccc2n1 [Compound 198, (S)-(1-(4-(4-Fluorobenzylamino)quinazolin-2-yl)pyrrolidin-2-yl)methanol] | 50 to 128 (≈ 17.6 to 45.1 µg/mL)
COc1cc2nc(N3CCC(F)(F)CC3)nc(NCc3ccc(F)cc3)c2cc1OC [Compound 151, 2-(4,4-Difluoropiperidin-1-yl)-N-(4-fluorobenzyl)-6,7-dimethoxyquinazolin-4-amine hydrochloride] | 10 to 50
COC(=O)[C@H](Cc1ccccc1)Nc1nc(N2CCCCC2)nc2ccccc12 [Compound 176, (S)-Methyl 3-phenyl-2-(2-(piperidin-1-yl)quinazolin-4-ylamino)propanoate] | 50 to 128 (≈ 19.5 to 50 µg/mL)
CN(Cc1ccccc1)c1nc(NCc2ccccc2)c2ccccc2n1 [Compound 29, N^2,N^4-Dibenzyl-N^2-methylquinazoline-2,4-diamine] | 10 to 50 (≈ 3.54 to 17.7 µg/mL)
O=C(c1ccccc1)N1CCN(c2nc(NCc3ccc(F)cc3)c3ccccc3n2)CC1 [Compound 204, (4-(4-(4-Fluorobenzylamino)quinazolin-2-yl)piperazin-1-yl)(phenyl)methanone] | 50 to 128 (≈ 22.1 to 56.5 µg/mL)
c1ccc(CNc2nc(N3CCNCC3)nc3ccccc23)cc1 [Compound 51, N-Benzyl-2-(piperazin-1-yl)quinazolin-4-amine] | 50 to 128 (≈ 16 to 40.9 µg/mL)
FC(F)(F)c1ccc(CNc2nc(N3CCCCC3)nc3ccccc23)o1 [Compound 160, 2-(Piperidin-1-yl)-N-((5-(trifluoromethyl)furan-2-yl)methyl)quinazolin-4-amine hydrochloride] | < 10
Cc1ccccc1CNc1nc(N2CCCCC2)nc2ccccc12 [Compound 104, N-(2-Methylbenzyl)-2-(piperidin-1-yl)quinazolin-4-amine hydrochloride] | 10 to 50
FC1(F)CCN(c2nc(NCc3ccc(C(F)(F)F)cc3)nc3ccccc23)CC1 [Compound 147, 4-(4,4-Difluoropiperidin-1-yl)-N-(4-(trifluoromethyl)benzyl)quinazolin-2-amine] | < 10
OC[C@@H]1CCCN1c1nc(NCc2ccccc2)c2ccccc2n1 [Compound 177, (S)-(1-(4-(Benzylamino)quinazolin-2-yl)pyrrolidin-2-yl)methanol] | 50 to 128 (≈ 16.7 to 42.8 µg/mL)

test system: non replicating phase of M. tuberculosis (H37Rv with a plasmid with an acetimidase promoter driving a luciferase gene); assay: microbe, parasite or virus in culture; type: cell-based; details: Mycobacterium tuberculosis, non replicating M. tuberculosis H37Rv luciferase strain, read-out: LORA (TB growth inhibition, MIC)

Compound | MIC [µM]
COc1ccc(CCNc2nc(N3CCCCC3)nc3ccccc23)cc1 [Compound 84, N-(4-Methoxyphenethyl)-2-(piperidin-1-yl)quinazolin-4-amine hydrochloride] | 10 to 50
FC(F)(F)c1ccc(N2CCN(c3nc(NCc4ccccc4)c4ccccc4n3)CC2)cc1 [Compound 135, N-Benzyl-2-(4-(4-(trifluoromethyl)phenyl)piperazin-1-yl)quinazolin-4-amine hydrochloride] | 10 to 50
C[C@@H](Nc1nc(N2CCCCC2)nc2ccccc12)c1ccccc1 [Compound 39, (R)—N-(1-Phenylethyl)-2-(piperidin-1-yl)quinazolin-4-amine] | 10 to 50 (≈ 3.32 to 16.6 µg/mL)
CC(C)(Nc1nc(N2CCCCC2)nc2ccccc12)c1ccc(F)cc1 [Compound 120, N-(2-(4-Fluorophenyl)propan-2-yl)-2-(piperidin-1-yl)quinazolin-4-amine] | 10 to 50 (≈ 3.64 to 18.2 µg/mL)
Clc1ccc(CNc2nc(NCc3ccccc3)c3ccccc3n2)cc1 [Compound 127, N^4-Benzyl-N^2-(4-chlorobenzyl)quinazoline-2,4-diamine hydrochloride] | < 10
c1ccc(CNc2nc(N3CCCC3)nc3ccccc23)cc1 [Compound 22, N-Benzyl-2-(pyrrolidin-1-yl)quinazolin-4-amine] | 10 to 50 (≈ 3.04 to 15.2 µg/mL)
